This is an account of results in US20170198006A1, “PRMT5 INHIBITORS AND USES THEREOF” (Epizyme, Inc., priority 2014, published 2017).

In the first assay the target is T1, PRMT5/MEP50 (Homo sapiens, UniProt O14744).
T1 construct: Flag-PRMT5; made in house; host or cells: Spodoptera frugiperda (SF9), baculovirus
T1 sequence (O14744 with tags, fused parts or gaps): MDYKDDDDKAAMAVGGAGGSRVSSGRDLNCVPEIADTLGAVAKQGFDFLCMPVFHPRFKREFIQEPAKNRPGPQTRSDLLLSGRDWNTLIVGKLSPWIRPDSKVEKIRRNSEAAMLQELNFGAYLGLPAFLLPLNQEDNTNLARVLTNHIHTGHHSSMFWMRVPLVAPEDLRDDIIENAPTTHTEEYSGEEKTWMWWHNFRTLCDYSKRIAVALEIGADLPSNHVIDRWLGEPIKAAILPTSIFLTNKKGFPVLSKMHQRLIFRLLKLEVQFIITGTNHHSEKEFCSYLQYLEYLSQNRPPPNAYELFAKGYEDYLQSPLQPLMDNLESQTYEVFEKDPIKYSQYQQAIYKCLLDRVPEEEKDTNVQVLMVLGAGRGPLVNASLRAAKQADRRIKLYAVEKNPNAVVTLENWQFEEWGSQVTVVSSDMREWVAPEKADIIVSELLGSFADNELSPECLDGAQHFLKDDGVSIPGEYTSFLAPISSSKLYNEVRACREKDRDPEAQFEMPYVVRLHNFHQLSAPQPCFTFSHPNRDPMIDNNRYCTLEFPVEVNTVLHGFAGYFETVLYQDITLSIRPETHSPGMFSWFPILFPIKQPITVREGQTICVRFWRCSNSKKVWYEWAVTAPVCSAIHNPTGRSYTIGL
T1 sequence (Q9BQA1 with tags, fused parts or gaps partner limits assumed): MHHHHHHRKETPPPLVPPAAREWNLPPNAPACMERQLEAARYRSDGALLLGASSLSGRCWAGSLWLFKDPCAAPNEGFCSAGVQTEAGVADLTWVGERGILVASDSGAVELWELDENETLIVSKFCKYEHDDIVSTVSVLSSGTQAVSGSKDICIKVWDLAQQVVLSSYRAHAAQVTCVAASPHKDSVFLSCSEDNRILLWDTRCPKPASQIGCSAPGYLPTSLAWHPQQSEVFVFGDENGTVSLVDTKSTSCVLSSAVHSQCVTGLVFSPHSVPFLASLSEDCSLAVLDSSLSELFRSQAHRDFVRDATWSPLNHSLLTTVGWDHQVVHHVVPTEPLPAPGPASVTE
The experiment in a line: PRMT5 Biochemical Assay (PRMT5/MEP50 enzyme assay on histone H4 peptide substrate, 3H-SAM Flashplate).
Conditions: not given
The source says: S-adenosylmethionine (SAM), S-adenosylhomocysteine (SAH), bicine, KCl, Tween20, dimethylsulfoxide (DMSO), bovine skin gelatin (BSG), and Tris(2-carboxyethyl)phosphine hydrochloride solution (TCEP) were purchased from Sigma-Aldrich at the highest level of purity possible. ^3H-SAM was purchase from American Radiolabeled Chemicals with a specific activity of 80 Ci/mmol. 384-well streptavidin Flashplates were purchased from PerkinElmer.
Peptide representative of human histone H4 residues 1-15 was synthesized with a C-terminal linker-affinity tag motif and a C-terminal amide cap by 21st Century Biochemicals.
The amplified genes were sublconed into pENTR/D/TEV (Life Technologies) and subsequently transferred by Gateway™ attL×attR recombination to pDEST8 baculvirus expression vector (Life Technologies).
Protein over-expression was accomplished by infecting exponentially growing Spodoptera frugiperda (SF9) cell culture at 1.2×10^6 cell/ml with a 5000 fold dilution of BIIC stock. Infections were carried out at 27° C. for 72 hours, harvested by centrifugation, and stored at −80° C. for purification.
Flag-PRMT5/6His-MeP50 was eluted with 300 mM Imidazole in the same buffer.
General Procedure for PRMT5/MEP50 Enzyme Assays on Peptide Substrates.
The assays were all performed in a buffer consisting of 20 mM Bicine (pH=7.6), 1 mM TCEP, 0.005% BSG, and 0.002% Tween20, prepared on the day of use. […] DMSO (1 ul) was added to Columns 11, 12, 23, 24, rows A-H for the maximum signal control and 1 ul of SAH, a known product and inhibitor of PRMT5/MEP50, was added to columns 11, 12, 23, 24, rows I-P for the minimum signal control. A cocktail (40 ul) containing the PRMT5/MEP50 enzyme and the peptide was added by Multidrop Combi (Thermo-Fisher). The compounds were allowed to incubate with PRMT5/MEP50 for 30 min at 25 degrees Celsius, then a cocktail (10 ul) containing ^3H-SAM was added to initiate the reaction (final volume=51 ul). […] The assays were stopped by the addition of non-radioactive SAM (10 ul) to a final concentration of 600 uM, which dilutes the ^3H-SAM to a level where its incorporation into the peptide substrate is no longer detectable. 50 ul of the reaction in the 384-well polypropylene plate was then transferred to a 384-well Flashplate and the biotinylated peptides were allowed to bind to the streptavidin surface for at least 1 hour before being washed three times with 0.1% Tween20 in a Biotek ELx405 plate washer. The plates were then read in a PerkinElmer TopCount plate reader to measure the quantity of ^3H-labeled peptide bound to the Flashplate surface, measured as disintegrations per minute (dpm) or alternatively, referred to as counts per minute (cpm).
Where dpm=disintegrations per minute, cmpd=signal in assay well, and min and max are the respective minimum and maximum signal controls.
Where top and bottom are the normally allowed to float, but may be fixed at 100 or 0 respectively in a 3-parameter fit. The Hill Coefficient normally allowed to float but may also be fixed at 1 in a 3-parameter fit. Y is the % inhibition and X is the compound concentration.
In the case of `O=C(CC1NC(N2CCN(Cc3ccccc3)CC2)=NC1=O)Nc1ccccc1` (stereo not shown) [Compound 6-14], the concentration for half-maximal inhibition (IC50) fell in the range of 10000 to 50000 nM.

Still in this assay, the particulars now being: PRMT5 biochemical assay; read-out: Biochemical IC50.
As to `CN(CCNCc1ccc(OC(F)F)cc1)C[C@H]1O[C@@H](n2cnc3c(N)ncnc32)[C@H](O)[C@@H]1O` [Compound 1-1], the IC50 lay within 101 to 1000 nM.

Turning to `COc1cccc([C@H](C)NCCN(C)C[C@H]2O[C@@H](n3cnc4c(N)ncnc43)[C@H](O)[C@@H]2O)c1` [Compound 2-1], the IC50 lay in the range of 101 to 1000 nM.

Regarding `NCc1nc(CCNC(=O)c2ccccc2)cn1Cc1ccccc1` [Compound 2-2, N-(2-(2-(aminomethyl)-1-benzyl-1H-imidazol-4-yl)ethyl)benzamide], the 50% inhibitory concentration (IC50) fell in the range of 101 to 1000 nM.

As for `O=C(CC1NC(N2CCN(c3ccccc3)CC2)=NC1=O)c1ccccc1Cl` (stereo not shown) [Compound 2-6], the half-maximal inhibitory concentration (IC50) was in the range of 101 to 1000 nM.

Consider `CN1CCN(C2=NC(=O)C(CC(=O)Nc3ccc(Cl)cc3)N2)CC1` (stereo not shown) [Compound 2-14], for which the IC50 is 1000 to 10000 nM.

`Cc1ccc(C(C)NCCN(C)C[C@H]2O[C@@H](n3cnc4c(N)ncnc43)[C@H](O)[C@@H]2O)cc1` (stereo partly shown) [Compound 3-1]: the IC50 was 101 to 1000 nM.

Take `COc1ccccc1C(=O)CC1NC(N2CCN(c3ccccc3)CC2)=NC1=O` (stereo not shown) [Compound 3-6]: the IC50 is 101 to 1000 nM.

As for `Cc1cccc(CN(C)CCN(C)C[C@H]2O[C@@H](n3cnc4c(N)ncnc43)[C@H](O)[C@@H]2O)c1` [Compound 4-1], the half-inhibitory concentration (IC50) lay within 101 to 1000 nM.

As for `O=C(CC1NC(N2CCN(c3ccccc3)CC2)=NC1=O)Nc1ccc(Br)cc1` (stereo not shown) [Compound 4-6], the 50% inhibitory concentration (IC50) is 101 to 1000 nM.

`Cc1ccc(NC(=O)CC2NC(N3CCN(C)CC3)=NC2=O)cc1` (stereo not shown) [Compound 4-14]: the IC50 was in the range of 10000 to 50000 nM.

Regarding `CC(NCCN(C)C[C@H]1O[C@@H](n2cnc3c(N)ncnc32)[C@H](O)[C@@H]1O)c1ccccc1` (stereo partly shown) [Compound 5-1], the IC50 was in the range of 101 to 1000 nM.

As for `COc1ccccc1C(=O)CC1NC(N2CCc3ccccc3C2)=NC1=O` (stereo not shown) [Compound 5-6], the IC50 is less than 100 nM.

In the case of `Cc1cnc(CN)n1Cc1ccccc1` [Compound 5-13], the IC50 lay within 1000 to 10000 nM.

For the compound `CCN1CCN(C2=NC(=O)C(CC(=O)Nc3ccc(C)cc3)N2)CC1` (stereo not shown) [Compound 5-14], the concentration for half-maximal inhibition (IC50) is 1000 to 10000 nM.

In the case of `CN(CCN(C)C[C@H]1O[C@@H](n2cnc3c(N)ncnc32)[C@H](O)[C@@H]1O)Cc1ccccc1Cl` [Compound 6-1], the concentration for half-maximal inhibition (IC50) was 101 to 1000 nM.

For `COc1ccccc1C(=O)CC1NC(N2CC=C(c3ccccc3)CC2)=NC1=O` (stereo not shown) [Compound 6-6], the IC50 lay in the range of 101 to 1000 nM.

In the case of `CN(CCNCc1ccc(Cl)cc1Cl)C[C@H]1O[C@@H](n2cnc3c(N)ncnc32)[C@H](O)[C@@H]1O` [Compound 7-1], the half-inhibitory concentration (IC50) was in the range of 101 to 1000 nM.

`NCc1ncc(CCNC(=O)c2ccccc2)n1Cc1ccccc1` [Compound 7-13]: the IC50 fell in the range of 10000 to 50000 nM.

As for `COc1ccc(NC(=O)CC2NC(N3CCN(c4ccccn4)CC3)=NC2=O)cc1` (stereo not shown) [Compound 7-14], the IC50 lay within 1000 to 10000 nM.

Take `CN(CCNCc1ccc(Cl)cc1)C[C@H]1O[C@@H](n2cnc3c(N)ncnc32)[C@H](O)[C@@H]1O` [Compound 8-1]: the IC50 was in the range of 101 to 1000 nM.

For `Cc1cccc(NC(=O)CC2NC(N3CCN(c4ccccc4)CC3)=NC2=O)c1` (stereo not shown) [Compound 8-14], the IC50 lay in the range of 1000 to 10000 nM.

In the case of `CN(CCN(C)C[C@H]1O[C@@H](n2cnc3c(N)ncnc32)[C@H](O)[C@@H]1O)Cc1ccccc1` [Compound 9-1], the IC50 lay in the range of 101 to 1000 nM.

With `Cc1ccc(NC(=O)CC2NC(N3CCN(Cc4ccccc4)CC3)=NC2=O)cc1` (stereo not shown) [Compound 9-14], the IC50 fell in the range of 1000 to 10000 nM.

Regarding `CN(CCN(C)C[C@H]1O[C@@H](n2cnc3c(N)ncnc32)[C@H](O)[C@@H]1O)Cc1ccc(Cl)cc1` [Compound 10-1], the concentration for half-maximal inhibition (IC50) is 101 to 1000 nM.

For `CC(=O)Nc1ccc(NC(=O)CC2NC(N3CCN(c4ccccc4)CC3)=NC2=O)cc1` (stereo not shown) [Compound 10-14], the IC50 fell in the range of 10000 to 50000 nM.

Regarding `COc1cc(CNCCN(C)C[C@H]2O[C@@H](n3cnc4c(N)ncnc43)[C@H](O)[C@@H]2O)cc(OC)c1` [Compound 11-1], the IC50 is 101 to 1000 nM.

On to `CCN1CCN(C2=NC(=O)C(CC(=O)Nc3ccc(OC)cc3)N2)CC1` (stereo not shown) [Compound 11-14], for which the IC50 is 1000 to 10000 nM.
